The target in test [1] is T1, Alpha-2A adrenergic receptor (Homo sapiens, UniProt P08913).
T1 sequence (P08913 whole entry): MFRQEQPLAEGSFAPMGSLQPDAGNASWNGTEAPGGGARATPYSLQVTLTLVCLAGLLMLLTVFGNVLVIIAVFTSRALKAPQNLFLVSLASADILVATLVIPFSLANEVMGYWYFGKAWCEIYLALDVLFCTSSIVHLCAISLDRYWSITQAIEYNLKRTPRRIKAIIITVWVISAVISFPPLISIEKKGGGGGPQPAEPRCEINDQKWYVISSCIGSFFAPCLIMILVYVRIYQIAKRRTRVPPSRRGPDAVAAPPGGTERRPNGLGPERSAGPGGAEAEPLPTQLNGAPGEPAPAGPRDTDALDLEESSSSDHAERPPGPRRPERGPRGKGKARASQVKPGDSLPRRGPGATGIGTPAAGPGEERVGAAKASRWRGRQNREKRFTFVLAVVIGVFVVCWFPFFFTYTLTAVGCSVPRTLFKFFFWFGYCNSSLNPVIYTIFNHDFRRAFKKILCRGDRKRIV

The target in the next test is T2, Androgen receptor (Homo sapiens, UniProt P10275).
T2 sequence (P10275 whole entry): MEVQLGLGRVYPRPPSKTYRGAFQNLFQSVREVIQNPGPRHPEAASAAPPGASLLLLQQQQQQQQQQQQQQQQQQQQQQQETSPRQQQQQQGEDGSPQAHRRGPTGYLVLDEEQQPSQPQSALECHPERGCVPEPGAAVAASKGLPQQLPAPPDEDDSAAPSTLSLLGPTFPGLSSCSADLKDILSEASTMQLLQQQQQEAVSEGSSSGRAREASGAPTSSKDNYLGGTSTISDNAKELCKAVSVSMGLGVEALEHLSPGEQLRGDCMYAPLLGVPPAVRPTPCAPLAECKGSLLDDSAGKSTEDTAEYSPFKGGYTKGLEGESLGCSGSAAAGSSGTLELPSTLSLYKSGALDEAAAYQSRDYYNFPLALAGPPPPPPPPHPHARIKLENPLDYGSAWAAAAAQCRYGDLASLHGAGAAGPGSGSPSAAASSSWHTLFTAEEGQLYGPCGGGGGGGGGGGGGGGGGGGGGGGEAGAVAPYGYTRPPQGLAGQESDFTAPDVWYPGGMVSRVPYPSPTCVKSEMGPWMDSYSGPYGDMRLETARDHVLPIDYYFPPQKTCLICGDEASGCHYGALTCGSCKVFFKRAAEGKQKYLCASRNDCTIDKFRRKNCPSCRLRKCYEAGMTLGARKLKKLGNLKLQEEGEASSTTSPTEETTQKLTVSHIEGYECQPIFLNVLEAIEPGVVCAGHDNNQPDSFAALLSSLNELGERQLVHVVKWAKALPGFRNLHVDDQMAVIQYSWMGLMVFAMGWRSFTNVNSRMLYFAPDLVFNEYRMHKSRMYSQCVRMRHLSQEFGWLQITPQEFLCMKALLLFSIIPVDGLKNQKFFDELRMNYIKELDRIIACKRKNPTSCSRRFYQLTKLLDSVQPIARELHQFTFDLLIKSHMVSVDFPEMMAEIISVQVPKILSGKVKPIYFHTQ

The target of test [2] is T3, Gamma-aminobutyric acid receptor subunit alpha-1 (Rattus norvegicus, UniProt P62813).
Test [3] addresses T4, Muscarinic acetylcholine receptor M1 (Homo sapiens, UniProt P11229).
T4 sequence (P11229 whole entry): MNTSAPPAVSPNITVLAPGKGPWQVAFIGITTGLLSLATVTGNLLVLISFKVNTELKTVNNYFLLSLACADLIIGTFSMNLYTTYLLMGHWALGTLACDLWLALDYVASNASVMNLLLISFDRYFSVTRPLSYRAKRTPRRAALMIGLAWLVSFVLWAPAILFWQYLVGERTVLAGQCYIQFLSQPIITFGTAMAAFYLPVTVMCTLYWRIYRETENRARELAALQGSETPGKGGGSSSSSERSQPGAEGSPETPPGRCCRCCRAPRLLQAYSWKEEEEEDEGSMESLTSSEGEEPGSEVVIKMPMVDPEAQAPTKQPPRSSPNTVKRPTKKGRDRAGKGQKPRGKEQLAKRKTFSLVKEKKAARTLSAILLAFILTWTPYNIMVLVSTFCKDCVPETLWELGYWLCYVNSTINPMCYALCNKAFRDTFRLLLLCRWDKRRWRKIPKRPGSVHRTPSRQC
Format: functional, cell-based.

Test [4] deals with T4, Muscarinic acetylcholine receptor M1. It is filed as functional, cell-based. This is another data set of the same source.
For test [5], the target named is Gamma-aminobutyric acid receptor subunit alpha-1/alpha-2/beta-2/gamma-2 (Homo sapiens, UniProt P14867+P18507+P47869+P47870). Format: protein-complex assay.
For test [6], the target named is T3, Gamma-aminobutyric acid receptor subunit alpha-1. It is filed as functional.
In a further test the target is Histamine H2 receptor (Homo sapiens, UniProt P25021). It is filed as functional, cell-based.
Test [7] deals with T5, 5-hydroxytryptamine receptor 2A (Homo sapiens, UniProt P28223). Format: functional, cell-based.
In test [8] the target is T5, 5-hydroxytryptamine receptor 2A. It is filed as functional, cell-based. This is another data set of the same source.
The target in test [9] is T6, Alpha-1A adrenergic receptor (Homo sapiens, UniProt P35348).
T6 sequence (P35348 whole entry): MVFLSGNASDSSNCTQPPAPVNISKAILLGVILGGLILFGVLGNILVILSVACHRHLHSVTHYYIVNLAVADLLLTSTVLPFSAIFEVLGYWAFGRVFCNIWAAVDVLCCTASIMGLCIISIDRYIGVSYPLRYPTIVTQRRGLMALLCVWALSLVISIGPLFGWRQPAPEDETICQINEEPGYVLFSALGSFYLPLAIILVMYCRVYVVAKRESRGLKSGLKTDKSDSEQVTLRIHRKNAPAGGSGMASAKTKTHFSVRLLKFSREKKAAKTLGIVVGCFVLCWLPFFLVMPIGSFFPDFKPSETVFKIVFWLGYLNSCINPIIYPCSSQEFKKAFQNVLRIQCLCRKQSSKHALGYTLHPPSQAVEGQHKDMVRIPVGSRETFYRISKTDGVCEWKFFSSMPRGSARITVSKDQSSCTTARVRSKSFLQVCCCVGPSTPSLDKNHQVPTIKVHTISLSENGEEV
Format: functional, cell-based.

One may read the AC50 as the midpoint of the concentration-response curve, whichever way the signal moves.
Also: assay procedure not described here.

Chain of Gamma-aminobutyric acid receptor subunit alpha-1/alpha-2/beta-2/gamma-2 (P14867 whole entry): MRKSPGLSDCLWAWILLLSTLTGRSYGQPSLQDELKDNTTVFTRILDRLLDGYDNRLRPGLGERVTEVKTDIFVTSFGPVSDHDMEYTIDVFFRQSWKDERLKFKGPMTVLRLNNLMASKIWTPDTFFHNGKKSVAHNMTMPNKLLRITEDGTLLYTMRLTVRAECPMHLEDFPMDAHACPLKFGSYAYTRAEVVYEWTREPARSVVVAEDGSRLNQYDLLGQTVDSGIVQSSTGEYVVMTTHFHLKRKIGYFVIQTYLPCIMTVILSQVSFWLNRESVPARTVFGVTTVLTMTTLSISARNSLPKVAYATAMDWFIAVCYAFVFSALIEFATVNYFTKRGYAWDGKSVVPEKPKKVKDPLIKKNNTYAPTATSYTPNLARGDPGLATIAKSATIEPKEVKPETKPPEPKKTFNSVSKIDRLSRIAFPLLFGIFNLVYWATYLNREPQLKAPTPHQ
Chain of Gamma-aminobutyric acid receptor subunit alpha-1/alpha-2/beta-2/gamma-2 (P47870 whole entry): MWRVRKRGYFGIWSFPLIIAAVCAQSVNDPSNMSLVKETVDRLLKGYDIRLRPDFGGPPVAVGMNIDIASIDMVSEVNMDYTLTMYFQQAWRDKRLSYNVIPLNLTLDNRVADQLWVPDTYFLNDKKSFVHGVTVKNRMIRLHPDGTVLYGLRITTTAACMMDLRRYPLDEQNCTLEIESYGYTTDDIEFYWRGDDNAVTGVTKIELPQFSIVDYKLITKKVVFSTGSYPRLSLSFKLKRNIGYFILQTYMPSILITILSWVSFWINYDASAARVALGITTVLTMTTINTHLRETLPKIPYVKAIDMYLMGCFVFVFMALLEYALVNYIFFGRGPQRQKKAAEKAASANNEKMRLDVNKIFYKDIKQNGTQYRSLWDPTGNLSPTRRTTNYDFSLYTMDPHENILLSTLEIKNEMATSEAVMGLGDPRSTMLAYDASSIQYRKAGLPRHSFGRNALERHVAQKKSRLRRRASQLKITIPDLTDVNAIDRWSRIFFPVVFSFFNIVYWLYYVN
Chain of Gamma-aminobutyric acid receptor subunit alpha-1/alpha-2/beta-2/gamma-2 (P18507 whole entry): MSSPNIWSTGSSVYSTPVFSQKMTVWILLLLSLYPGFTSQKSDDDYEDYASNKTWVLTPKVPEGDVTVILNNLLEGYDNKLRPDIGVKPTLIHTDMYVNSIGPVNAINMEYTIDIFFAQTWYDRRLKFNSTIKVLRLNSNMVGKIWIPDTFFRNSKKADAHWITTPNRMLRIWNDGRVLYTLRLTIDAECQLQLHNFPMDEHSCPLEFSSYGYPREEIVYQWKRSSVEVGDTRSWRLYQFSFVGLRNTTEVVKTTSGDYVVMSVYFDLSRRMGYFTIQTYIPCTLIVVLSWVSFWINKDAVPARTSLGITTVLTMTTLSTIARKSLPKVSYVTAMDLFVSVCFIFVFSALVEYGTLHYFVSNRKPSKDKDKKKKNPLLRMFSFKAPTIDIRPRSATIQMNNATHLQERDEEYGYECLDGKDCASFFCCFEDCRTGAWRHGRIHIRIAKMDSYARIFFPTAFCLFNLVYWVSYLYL
Chain of Gamma-aminobutyric acid receptor subunit alpha-1/alpha-2/beta-2/gamma-2 (P47869 whole entry): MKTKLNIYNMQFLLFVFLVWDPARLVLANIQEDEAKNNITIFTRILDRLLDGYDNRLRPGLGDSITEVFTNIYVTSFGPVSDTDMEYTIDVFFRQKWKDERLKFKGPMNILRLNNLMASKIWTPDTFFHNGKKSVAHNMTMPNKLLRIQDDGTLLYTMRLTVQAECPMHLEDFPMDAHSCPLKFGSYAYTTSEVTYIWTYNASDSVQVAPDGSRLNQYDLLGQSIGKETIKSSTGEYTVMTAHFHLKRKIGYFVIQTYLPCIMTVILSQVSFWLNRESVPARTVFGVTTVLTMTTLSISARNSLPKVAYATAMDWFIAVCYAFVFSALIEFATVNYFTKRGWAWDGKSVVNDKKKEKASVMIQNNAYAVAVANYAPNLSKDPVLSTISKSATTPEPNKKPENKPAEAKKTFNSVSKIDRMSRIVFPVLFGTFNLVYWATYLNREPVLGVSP
T5 sequence (P28223 whole entry): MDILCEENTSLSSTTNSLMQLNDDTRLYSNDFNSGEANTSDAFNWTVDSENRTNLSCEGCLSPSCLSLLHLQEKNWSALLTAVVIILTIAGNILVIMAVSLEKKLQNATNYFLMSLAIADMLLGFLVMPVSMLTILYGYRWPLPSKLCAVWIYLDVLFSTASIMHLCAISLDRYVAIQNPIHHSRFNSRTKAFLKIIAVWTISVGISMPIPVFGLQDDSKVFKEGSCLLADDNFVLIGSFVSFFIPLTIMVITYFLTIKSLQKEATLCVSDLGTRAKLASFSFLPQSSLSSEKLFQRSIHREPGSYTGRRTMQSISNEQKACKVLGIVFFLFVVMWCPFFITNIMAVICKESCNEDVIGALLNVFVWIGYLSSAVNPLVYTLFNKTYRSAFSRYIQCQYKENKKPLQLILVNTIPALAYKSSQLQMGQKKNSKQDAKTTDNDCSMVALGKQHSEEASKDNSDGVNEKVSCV
T3 sequence (P62813 whole entry): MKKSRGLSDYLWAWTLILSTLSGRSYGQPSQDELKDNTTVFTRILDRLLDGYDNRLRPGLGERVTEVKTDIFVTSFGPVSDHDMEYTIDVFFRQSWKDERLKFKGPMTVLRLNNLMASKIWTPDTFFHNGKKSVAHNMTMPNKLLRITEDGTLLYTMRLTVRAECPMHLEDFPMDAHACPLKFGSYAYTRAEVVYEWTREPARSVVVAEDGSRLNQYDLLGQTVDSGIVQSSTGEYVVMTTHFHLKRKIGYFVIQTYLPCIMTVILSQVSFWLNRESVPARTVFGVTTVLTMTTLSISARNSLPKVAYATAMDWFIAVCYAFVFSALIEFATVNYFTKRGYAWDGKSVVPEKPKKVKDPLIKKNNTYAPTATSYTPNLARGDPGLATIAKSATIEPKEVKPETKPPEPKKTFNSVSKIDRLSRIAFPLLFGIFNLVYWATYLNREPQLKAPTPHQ
Chain of Histamine H2 receptor (P25021 whole entry): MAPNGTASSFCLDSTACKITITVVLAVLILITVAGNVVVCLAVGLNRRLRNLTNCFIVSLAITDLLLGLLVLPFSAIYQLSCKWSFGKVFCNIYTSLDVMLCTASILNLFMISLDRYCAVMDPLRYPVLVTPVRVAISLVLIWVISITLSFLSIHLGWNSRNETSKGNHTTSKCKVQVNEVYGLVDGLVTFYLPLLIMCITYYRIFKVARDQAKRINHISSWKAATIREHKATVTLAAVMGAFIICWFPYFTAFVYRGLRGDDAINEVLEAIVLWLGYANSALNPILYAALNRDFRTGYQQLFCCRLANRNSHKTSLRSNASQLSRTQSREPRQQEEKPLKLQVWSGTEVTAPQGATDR

With `C[C@@H](O)[C@H]1C(=O)N2C(C(=O)O)=C(S[C@@H]3CN[C@H](C(=O)Nc4cccc(C(=O)O)c4)C3)[C@H](C)[C@H]12`, the AC50 (in test [1]; on Androgen receptor; in test [2]) was greater than 30 µM in each case.
For the compound `Cc1ccc2c([nH]c(=O)c3c(=O)cc(C(=O)OCCC(C)C)oc32)c1C`, the concentration at half-maximal activity (AC50) is greater than 30 µM in test [1]; greater than 30 µM at Androgen receptor; greater than 30 µM in test [3]; greater than 30 µM in [4]; greater than 10 µM in test [5].
`COC(=O)N[C@H](C(=O)N1CC2(CC2)C[C@H]1c1ncc(-c2ccc3c(c2)C(F)(F)c2cc(-c4ccc5nc([C@@H]6[C@H]7CC[C@H](C7)N6C(=O)[C@@H](NC(=O)OC)C(C)C)[nH]c5c4)ccc2-3)[nH]1)C(C)C`: the AC50 is greater than 30 µM in test [1]; greater than 10 µM on Androgen receptor; greater than 30 µM in test [3]; greater than 30 µM in test [4]; greater than 30 µM in test [5].
Consider `CC1(C)S[C@@H]2[C@H](NC(=O)[C@H](NC(=O)c3cnc4cccnc4c3O)c3ccccc3)C(=O)N2[C@H]1C(=O)O` [APALCILLIN], for which the AC50 is greater than 30 µM in test [1]; greater than 30 µM on Androgen receptor; greater than 30 µM in [3]; greater than 30 µM in test [4]; 1.25 µM in test [2].
As for `OCc1ccccc1` [BENZYL ALCOHOL], the AC50 (in test [1]; on Androgen receptor; in test [5]) was greater than 30 µM throughout.
For the compound `CC(C)(C)NCC(O)COc1ccccc1C#N` (stereo not drawn) [BUNITROLOL], the half-maximal activity concentration (AC50) in test [1] was 27.1 µM; on Androgen receptor it was greater than 30 µM; in test [3] it was greater than 30 µM; in [4], greater than 30 µM; in [2], greater than 30 µM; in [6] it was greater than 30 µM. For the same compound, the AC50 (on Histamine H2 receptor; in test [7]; in test [8]; in test [9]) was greater than 30 µM in each case.
Regarding `O=NN(CCCl)C(=O)NCCCl` [CARMUSTINE], the AC50 (in [1]; on Androgen receptor; in [2]) was greater than 30 µM in each case.
For the compound `CC1(C)C[C@@H]1C(=O)N/C(=C\CCCCSC[C@H](N)C(=O)O)C(=O)O` [CILASTATIN], the AC50 (in test [1]; on Androgen receptor; in test [3]; in [4]; in test [2]) was greater than 30 µM throughout.
For `COc1c(OCCCN2CCOCC2)ccc2c1N=C(NC(=O)c1cnc(N)nc1)N1CCN=C21` [COPANLISIB], the half-maximal activity concentration (AC50) (in test [1]; on Androgen receptor; in [3]; in [4]; in test [2]) was greater than 30 µM each time.
Take `CCOc1ccc(Cc2nccc3cc(OCC)c(OCC)cc23)cc1OCC` [ETHAVERINE]: the half-maximal activity concentration (AC50) in test [1] was 20.9 µM; at Androgen receptor, greater than 30 µM; in [3], greater than 30 µM; in [4] it was 1.66 µM; in test [2], greater than 30 µM.
As to `CC(NCCC(c1ccccc1)c1ccccc1)c1ccccc1` (stereo not drawn) [FENDILINE], the AC50 in test [1] is 5.89 µM; on Androgen receptor it was greater than 30 µM; in [3], 26.7 µM; in [5], greater than 10 µM.
`CC(C)(Oc1ccc(C(=O)c2ccc(Cl)cc2)cc1)C(=O)O` [FENOFIBRIC ACID]: the AC50 (in test [1]; at Androgen receptor; in [3]; in test [4]; in [5]) was greater than 30 µM in each case.
`COC(=O)Nc1nc2cc(C(=O)c3ccc(F)cc3)ccc2[nH]1` [FLUBENDAZOLE]: the AC50 (in test [1]; at Androgen receptor; in test [5]) was greater than 30 µM in each case.
As for `CC(O)(CC(=O)O)CC(=O)O` [MEGLUTOL], the AC50 is greater than 30 µM in test [1]; greater than 30 µM at Androgen receptor; greater than 30 µM in test [3]; 9.87 µM in test [4]; greater than 30 µM in test [2].
Regarding `Oc1ccc(OCc2ccccc2)cc1` [MONOBENZONE], the AC50 (in test [1]; at Androgen receptor; in [5]) was greater than 30 µM each time.
Consider `C[C@@H]1O[C@@H](O[C@H]2C[C@@H](O)[C@]3(CO)[C@H]4[C@H](O)C[C@]5(C)[C@@H](C6=CC(=O)OC6)CC[C@]5(O)[C@@H]4CC[C@]3(O)C2)[C@H](O)[C@H](O)[C@H]1O` [OUABAIN], for which the AC50 (in test [1]; on Androgen receptor; in test [5]) was greater than 30 µM throughout.
On to `COc1ccc(C(=O)c2ccccc2)c(O)c1` [OXYBENZONE], for which the concentration at half-maximal activity (AC50) in test [1] was greater than 30 µM; on Androgen receptor, greater than 30 µM; in test [3], greater than 30 µM; in test [4] it was greater than 10 µM; in test [2] it was greater than 30 µM; in test [6], greater than 30 µM. For the same compound, the AC50 (on Histamine H2 receptor; in [7]; in test [8]; in [9]) was greater than 30 µM each time.
Turning to `OC(CN1CCCCC1)c1cc(-c2ccccc2)on1` (stereo not drawn) [PERISOXAL], the half-maximal activity concentration (AC50) (in [1]; on Androgen receptor; in [2]) was greater than 30 µM each time.
For the compound `CO[C@H]1/C=C/O[C@@]2(C)Oc3c(C)c(O)c4c(c3C2=O)C2=NC3(CCN(CC(C)C)CC3)NC2=C(NC(=O)/C(C)=C\C=C\[C@H](C)[C@H](O)[C@@H](C)[C@@H](O)[C@@H](C)[C@H](OC(C)=O)[C@@H]1C)C4=O` [RIFABUTIN], the AC50 (in test [1]; at Androgen receptor; in test [5]) was greater than 30 µM throughout.
Regarding `[H]/N=C(/N)NS(=O)(=O)c1ccc(N)cc1` [SULFAGUANIDINE], the AC50 (in test [1]; on Androgen receptor; in test [3]; in test [4]; in [2]) was greater than 30 µM in each case.
In the case of `CC(=O)O[C@]1(C(C)=O)CC[C@H]2[C@@H]3CCC4=CC(=O)CCC4=C3[C@@H](c3ccc(N(C)C)cc3)C[C@@]21C` [ULIPRISTAL ACETATE], the AC50 was greater than 30 µM in [1]; 0.03 µM on Androgen receptor; greater than 30 µM in [3]; greater than 30 µM in [4]; greater than 30 µM in test [2].

The record behind these values is ChEMBL document CHEMBL5291721, “A preclinical secondary pharmacology resource illuminates target-adverse drug reaction associations of marketed drugs” (Nat Commun, 2023).
